One test concerns the target T1, human Orexin-2 receptor (Homo sapiens, UniProt O43614).
T1 construct: expressed in transfected cells; host or cells: HEK293 cells (transient transfection, Genejuice); membranes
T1 sequence (O43614 1-444): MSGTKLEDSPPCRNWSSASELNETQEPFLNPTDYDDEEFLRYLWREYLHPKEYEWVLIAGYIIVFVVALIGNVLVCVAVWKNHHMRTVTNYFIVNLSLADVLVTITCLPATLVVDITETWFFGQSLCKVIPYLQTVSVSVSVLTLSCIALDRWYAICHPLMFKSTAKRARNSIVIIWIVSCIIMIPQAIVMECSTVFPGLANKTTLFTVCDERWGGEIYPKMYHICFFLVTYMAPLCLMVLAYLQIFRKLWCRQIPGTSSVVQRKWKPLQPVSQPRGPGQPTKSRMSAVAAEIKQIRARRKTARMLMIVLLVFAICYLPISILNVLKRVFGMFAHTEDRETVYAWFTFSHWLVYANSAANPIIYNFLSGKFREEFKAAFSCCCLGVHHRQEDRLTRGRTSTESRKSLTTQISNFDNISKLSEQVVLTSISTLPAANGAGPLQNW
Kind of test: 3H-EMPA radioligand binding assay. Particulars: 3H-EMPA displacement, membranes of HEK293 cells transfected with human Orexin-2 receptor; KI by Cheng-Prussoff; read-out: OX2 pKi ave (converted). In outline: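 Membranes from HEK293 cells transiently transfected with human orexin-2 receptor cDNA, assayed with [3H]EMPA. Bound ligand collected on PEI-treated GF/B filters and counted by scintillation; IC50 from inhibition curves, Ki by Cheng-Prusoff.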

The target of test [1] is T2, cortical orexin-2 receptors (Rattus norvegicus, UniProt P56719).
T2 construct: from tissue; host or cells: rat brain cortex sections (Sprague Dawley)
T2 sequence (P56719 1-460): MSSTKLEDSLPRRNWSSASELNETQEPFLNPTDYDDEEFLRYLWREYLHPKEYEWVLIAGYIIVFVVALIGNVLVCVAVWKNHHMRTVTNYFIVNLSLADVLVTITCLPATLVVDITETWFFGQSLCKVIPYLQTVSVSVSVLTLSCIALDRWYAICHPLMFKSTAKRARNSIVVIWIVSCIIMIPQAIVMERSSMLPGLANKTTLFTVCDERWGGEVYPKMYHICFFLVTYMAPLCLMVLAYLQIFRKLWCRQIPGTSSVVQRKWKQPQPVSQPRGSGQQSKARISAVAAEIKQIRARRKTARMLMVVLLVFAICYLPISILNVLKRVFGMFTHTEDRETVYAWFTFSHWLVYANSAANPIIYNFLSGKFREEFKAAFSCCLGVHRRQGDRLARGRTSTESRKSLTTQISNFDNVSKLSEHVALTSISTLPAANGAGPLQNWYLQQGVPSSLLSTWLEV
Kind of test: Ex vivo orexin-2 receptor occupancy. Particulars: for ED50: po. It is filed as in vivo. The procedure: Ex Vivo Orexin-2 Receptor Occupancy
Male Sprague Dawley rats were dosed orally with either vehicle, example 145, (0.3-10 mg/kg po) or example 100, (1 mg/kg, po). Vehicle for example 145 was 90% PEG400/10% Tween-80; for example 100 10% DMAC+10% Solutol+80% (10% HPβCD in water). 1 h post-dose, animals were sacrificed and brains removed. A coronal block containing the cortex was rapidly frozen in isopentane for sectioning and autoradiography. 20 μm thick sections were mounted onto slides and incubated with [^3H]EMPA (total binding) or [^3H]EMPA and 1 μM TCS OX2 29 (non-specific binding) for 20 min at rt. Binding was terminated by aspiration and washing with ice-cold assay buffer and allowed to air dry. Levels of bound radioactivity in the sections were determined using a beta imager over a 16 h period. Occupancy was determined as mean specific binding with the vehicle treated control taken as 100%.

A further test has as its system rat CT18 sleep model. Kind of test: Rat telemetered sleep study (rat CT18 sleep model). It is filed as in vivo. Particulars: male CD rats, 3 mg/kg po at CT18, ANOVA over 3 hours post-treatment. The procedure:
Rat Telemetered Sleep Study
Example 100 was assessed for activity in a rat CT18 sleep model. Adult male CD rats (250-300 g) were implanted with telemetric probes fixed to the skull to record cortical electroencephalogram (EEG), and with telemetric probes fixed to the skeletal muscles of the neck to record electromyogram (neck EMG), and allowed to recover for 3 weeks to re-establish normal sleep patterns. Rats were administered with example 100 (3, 10 and 30 mg/kg, po) or vehicle (80% v/v PEG400, 20% v/v Cremophor EL, 2 ml/kg) at Circadian Time (CT) 18, six hours after lights off. EEG and neck EMG traces were recorded for 5 hours after treatment and analysed to determine time spent awake and in NREM sleep and REM sleep.

Another test concerns preclinical sleep models. Particulars: in vivo; cited from earlier work.
Test [2] has as its system patients with primary insomnia. Particulars: Phase II; cited from earlier work.
Test [3] concerns primary insomnia patients. Particulars: Phase IIb study; cited from earlier work.

Like-named read-outs stand apart in the source and are kept apart here. Some results are limits rather than exact numbers.

Consider `COc1cc(N2C(=O)N(Cc3c(F)cc(F)cc3F)c3ncccc3S2(=O)=O)cnc1OC` [Example 100, 2-(5,6-Dimethoxypyridin-3-yl)-4-(2,4,6-trifluorobenzyl)-2H-pyrido[2,3-e][1,2,4]thiadiazin-3(4H)-one 1,1-dioxide], for which the Ki on human Orexin-2 receptor was 2.45 nM. Also, the ED50 in test [1] (rat, inferred from 57% occupancy at 1 mg/kg, read-out: ED50 value of orexin-2 receptor occupancy (suggested from single dose)) was less than 1 mg/kg. The molecule further gave a receptor occupancy at 1 mg/kg in test [1] (rat, male Sprague Dawley rats, 1 mg/kg po, 1 h post-dose) of 57%. Moreover, in the test with rat CT18 sleep model, the NREM sleep entry is recorded as “statistically significant increases”, the REM sleep result is on record as “statistically significant increases” and the time spent awake entry is on record as “statistically significant decrease”.
For `COc1cc(N2C(=O)N(Cc3c(F)cc(F)cc3F)c3ccccc3S2(=O)=O)cnc1OC` [Example 145, 2-(5,6-Dimethoxypyridin-3-yl)-4-(2,4,6-trifluorobenzyl)-2H-1,2,4-benzothiadiazin-3(4H)-one 1,1-dioxide], the Ki on human Orexin-2 receptor is 4.68 nM. The “occupancy of cortical orexin-2 receptors, dose dependence” value in test [1] (male Sprague Dawley rats, 0.3-10 mg/kg po, 1 h post-dose) was “dose dependent manner”. For the same molecule, in test [1] (rat, male Sprague Dawley rats, 0.3-10 mg/kg, 1 h post-dose, estimated, read-out: ED50 of cortical orexin-2 receptor occupancy), the ED50 is 5.8 mg/kg.
Consider `Cc1ccc(-c2ncccn2)c(C(=O)N2C[C@H](COc3ccc(F)cn3)CC[C@H]2C)c1` [MK-6096], for which, in the test with preclinical sleep models, the “efficacy in preclinical sleep models” value is on record as “shows efficacy”.
In the case of `CNC(=O)[C@@H](c1ccccc1)N1CCc2cc(OC)c(OC)cc2[C@@H]1CCc1ccc(C(F)(F)F)cc1` [almorexant], in test [2], the sleep efficiency result is recorded as “dose-dependently increased”.
For the molecule `Cc1ccc(-n2nccn2)c(C(=O)N2CCN(c3nc4cc(Cl)ccc4o3)CC[C@H]2C)c1` [suvorexant], the sleep efficiency result in test [3] is recorded as “increased”.

(Values after patent US10316028B2, “Orexin receptor antagonists” (Heptares Therapeutics Limited, priority 2012, dated 2019).)
